Measurements taken from article doi:10.1101/2024.03.08.583891v2 (biorxiv, 2024).

Each compound was assayed against T1, NMDA receptor histamine site (NMDA(HA)R), native NMDAR of rat hippocampal synaptosomes (Rattus norvegicus, UniProt P35439+Q00960) (assay: tissue or organelle). Conditions: read-out: Intrinsec activity %.
T1 sequence (Q00960 27-1482, other chains not shown): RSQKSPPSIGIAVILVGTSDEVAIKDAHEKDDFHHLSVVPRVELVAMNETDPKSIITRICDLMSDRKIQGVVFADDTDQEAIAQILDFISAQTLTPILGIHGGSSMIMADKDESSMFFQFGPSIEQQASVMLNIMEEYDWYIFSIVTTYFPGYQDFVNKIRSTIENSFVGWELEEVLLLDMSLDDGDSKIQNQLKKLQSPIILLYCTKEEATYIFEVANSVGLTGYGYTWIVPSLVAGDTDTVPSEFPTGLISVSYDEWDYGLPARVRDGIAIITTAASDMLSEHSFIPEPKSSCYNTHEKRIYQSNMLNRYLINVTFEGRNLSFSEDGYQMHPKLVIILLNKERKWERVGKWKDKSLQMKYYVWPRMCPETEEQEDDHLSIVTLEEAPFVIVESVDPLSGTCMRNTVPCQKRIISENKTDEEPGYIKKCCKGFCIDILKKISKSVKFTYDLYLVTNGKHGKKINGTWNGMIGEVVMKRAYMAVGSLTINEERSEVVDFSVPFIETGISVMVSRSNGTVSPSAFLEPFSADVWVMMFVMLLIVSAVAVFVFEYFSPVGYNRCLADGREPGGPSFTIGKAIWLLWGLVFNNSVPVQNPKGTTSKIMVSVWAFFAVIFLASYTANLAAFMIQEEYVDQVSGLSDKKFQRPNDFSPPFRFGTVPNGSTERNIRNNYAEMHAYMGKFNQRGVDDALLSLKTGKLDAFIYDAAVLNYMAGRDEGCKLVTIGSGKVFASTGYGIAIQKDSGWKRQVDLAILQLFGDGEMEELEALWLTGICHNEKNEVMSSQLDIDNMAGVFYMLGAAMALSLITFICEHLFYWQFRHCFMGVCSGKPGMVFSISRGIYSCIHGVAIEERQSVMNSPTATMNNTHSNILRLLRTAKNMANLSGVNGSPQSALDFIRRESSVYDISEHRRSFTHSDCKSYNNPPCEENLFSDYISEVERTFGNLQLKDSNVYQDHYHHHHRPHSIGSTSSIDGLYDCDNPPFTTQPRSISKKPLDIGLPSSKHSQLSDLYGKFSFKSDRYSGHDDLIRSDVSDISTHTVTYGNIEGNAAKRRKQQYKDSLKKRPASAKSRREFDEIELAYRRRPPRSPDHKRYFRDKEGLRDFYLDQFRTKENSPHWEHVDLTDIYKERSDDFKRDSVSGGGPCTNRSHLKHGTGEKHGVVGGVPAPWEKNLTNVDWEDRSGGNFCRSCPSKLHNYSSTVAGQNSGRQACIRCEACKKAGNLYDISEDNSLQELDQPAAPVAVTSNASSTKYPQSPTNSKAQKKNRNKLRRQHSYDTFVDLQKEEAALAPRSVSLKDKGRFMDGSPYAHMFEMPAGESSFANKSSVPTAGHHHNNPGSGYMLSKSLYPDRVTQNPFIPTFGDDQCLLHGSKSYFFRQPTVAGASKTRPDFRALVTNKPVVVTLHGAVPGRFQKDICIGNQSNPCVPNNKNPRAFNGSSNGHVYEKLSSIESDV

Row | Structure (SMILES) | Emax [%]
1 | Cc1nc(N)sc1CCCCN [Fub 217] | 52
2 | CCc1nc(N)sc1CCN [Fub 240] | 82
3 | CCc1nc(N)sc1CCCCN [Fub 309] | 40
4 | Cc1nc(N)sc1CCCCCN [Fub 238] | 50
5 | CCc1nc(N)sc1CCCN [Fub 301] | 61

Target: T1, NMDA receptor histamine site (NMDA(HA)R), native NMDAR of rat hippocampal synaptosomes
Test: tissue or organelle
Conditions: read-out: Intrinsec activity %
Remark: another data set of the same source

Row | Structure (SMILES) | Emax [%]
6 | COc1ccc(CCNCCc2ccc3nc(N)sc3c2)cc1 [Fub 298] | 19
7 | Nc1nc2ccc(CCNCCCc3ccccc3)cc2s1 [Fub 292] | 32
8 | Nc1nc2ccc(CCNCc3ccccc3)cc2s1 [Fub 299] | 36
9 | Nc1nc2ccc(CCNCC3CCCCC3)cc2s1 [Fub 266] | 48
10 | Nc1nc2ccc(CCNCCCCCCc3ccccc3)cc2s1 [Fub 307] | 33
11 | Cc1ccc(CCNCCc2ccc3nc(N)sc3c2)cc1 [Fub 297] | 32
12 | Nc1nc2ccc(CCNCCc3ccccc3)cc2s1 [Fub 281] | 30
13 | Nc1nc2ccc(CCNCCCCCc3ccccc3)cc2s1 [Fub 306] | 33

Target: T1, NMDA receptor histamine site (NMDA(HA)R), native NMDAR of rat hippocampal synaptosomes
Test: tissue or organelle
Conditions: read-out: Intrinsec activity %
Remark: another data set of the same source

Row | Structure (SMILES) | Emax [%]
14 | NCCCCc1cnc(N)s1 [Fub 218] | 81
15 | CC1(C)C(C(=O)c2cn(Cc3ccc(F)cc3)c3ccccc23)C1(C)C [Fub 144] | 35
16 | NCCCCCCc1cnc(N)s1 [Fub 296] | 41
17 | Cc1sc(N)nc1/C=C/CN [Fub 242] | 75
18 | NCCCCCc1cnc(N)s1 [Fub 295] | 41
19 | Nc1nc(C2CCC(N)CC2)c[se]1 (stereo not shown) [Fub 210] | 33
20 | Nc1nc(C2CCCC(N)C2)cs1 (stereo not shown) [Fub 235] | 38
21 | Nc1nc(C2CCC(N)CC2)cs1 (stereo not shown) [Fub 206] | 40

Target: T1, NMDA receptor histamine site (NMDA(HA)R), native NMDAR of rat hippocampal synaptosomes
Test: tissue or organelle
Conditions: read-out: Intrinsec activity %
Remark: another data set of the same source

Row | Structure (SMILES) | Emax [%]
22 | CCCCCCCCNCCc1ccc2nc(N)sc2c1 [Fub 304] | 33
23 | COc1cc2c(cc1OC)CC(NCC(O)c1ccc(C)cc1)CC2 (stereo not shown) [ST 563] | 50
24 | Clc1nc2ccc(CCNCCCCc3ccccc3)cc2s1 [ST 575] | 40
25 | CCNCCc1ccc2nc(N)sc2c1 [Fub 275] | 15
26 | CCCCCCCCCNCCc1ccc2nc(N)sc2c1 [Fub 305] | 30
27 | CCN(CCc1ccccc1)C1CCc2cc(OC)c(OC)cc2C1 (stereo not shown) [ST 577] | 25
28 | CCCCNCCc1ccc2nc(N)sc2c1 [Fub 286] | 31
29 | CCCCCNCCc1ccc2nc(N)sc2c1 [Fub 287] | 30
30 | CCCNCCc1ccc2nc(N)sc2c1 [Fub 276] | 15
31 | CCCCCCNCCc1ccc2nc(N)sc2c1 [Fub 288] | 35
32 | CCC(C)(C)NCCc1ccc2nc(N)sc2c1 [Fub 290] | 27
33 | Sc1nc2ccc(SCCNCCCCc3ccccc3)cc2s1 [ST 576] | 38
34 | CC(C)(C)NCCc1ccc2nc(N)sc2c1 [Fub 289] | 23
35 | COc1ccc(C(O)CNC2CCc3cc(OC)c(OC)cc3C2)cc1 (stereo not shown) [ST 578] | 30
36 | CCCCCCCNCCc1ccc2nc(N)sc2c1 [Fub 303] | 33
37 | CCCC(C)(C)NCCc1ccc2nc(N)sc2c1 [Fub 291] | 32

Target: T1, NMDA receptor histamine site (NMDA(HA)R), native NMDAR of rat hippocampal synaptosomes
Test: tissue or organelle
Conditions: read-out: Intrinsec activity %
Remark: another data set of the same source

Row | Structure (SMILES) | Emax [%]
38 | NCCCCCc1csc(N)n1 [Fub 216] | 20
39 | Cc1sc(N)nc1CCCCN [Fub 302] | 29
40 | NCCCCCCc1csc(N)n1 [Fub 239] | 23
41 | Cc1sc(N)nc1CCCN [Fub 241] | 53

Target: T1, NMDA receptor histamine site (NMDA(HA)R), native NMDAR of rat hippocampal synaptosomes
Test: tissue or organelle
Conditions: read-out: Intrinsec activity %
Remark: another data set of the same source

Row | Structure (SMILES) | Emax [%]
42 | Nc1nc2ccc(CCNCCCCc3ccccc3)cc2s1 [FUBn293] | 39

Target: T1, NMDA receptor histamine site (NMDA(HA)R), native NMDAR of rat hippocampal synaptosomes
Test: tissue or organelle
Conditions: read-out: Intrinsec activity %
Remark: another data set of the same source

Row | Structure (SMILES) | Emax [%]
43 | COc1cc2c(cc1OC)CC(NCC(O)c1ccc(C(F)(F)F)cc1)CC2 (stereo not shown) [ST 590] | 30
44 | COc1cc2c(cc1OC)CC(NCC(O)c1ccc(F)cc1)CC2 (stereo not shown) [ST 593] | 25
45 | CCN(CC(O)c1ccc(C(F)(F)F)cc1)C1CCc2cc(OC)c(OC)cc2C1 (stereo not shown) [ST 592] | 30
46 | CCCNC1CCc2ncsc2C1 (stereo not shown) [ST 581] | 50

Target: T1, NMDA receptor histamine site (NMDA(HA)R), native NMDAR of rat hippocampal synaptosomes
Test: tissue or organelle
Conditions: read-out: Intrinsec activity %
Remark: another data set of the same source

Row | Structure (SMILES) | Emax [%]
47 | NCCc1ccc2nc(N)sc2c1 [Fub 247] | 48
48 | NCc1ccc2nc(N)sc2c1 [Fub 223] | 34
49 | NCCc1ccc2nc(N)[se]c2c1 [Fub 300] | 45
